Results reported in US10669271B2, “Heterocyclic compounds as immunomodulators” (Incyte Corporation, priority 2018, dated 2020).

Columns and labels:
PD-L1 = PD-L1 (Homo sapiens (Human), UniProt Q9NZQ7); experiment: PD-L1 whole blood internalization assay; format: cell-based; conditions: 1 ng/ml human interferon γ, PD-L1 expression on CD14+ cells, read-out: Whole Blood (24 HR) IC50
Description: Example D. PD-L1 Whole Blood Internalization Assay
To determine PD-L1 internalization in human whole blood, normal human blood (Biological Specialty Corp, Colmar. Pa.) was incubated in the presence or absence of a concentration range of test compounds and 1 ng/ml human interferon γ (R&D Systems Inc. Minn. […] Blood was then stained with PD-L1 (MIH1, eBioscience; or BD Biosciences San Jose, Calif.), CD14 (Life Technologies, Carlsbad, Calif.) for 30 minutes in the dark at room temperature. Whole Blood/red cells were lysed/fixed (lysis buffer BD Biosciences) for 5 minutes at 37° C. in the dark and then centrifuged at 1600 RPM for 5 minutes. Cells were resuspended in Stain Buffer (BD Bioscience, San Jose, Calif.) and transferred into 96 well round bottom plates (Corning). Cells were gated on CD14+(BD Biosciences) and PD-L1 expression determined by mean fluorescence intensity (MFI) (BD LSRFortessa™ X-20). IC50 determination was performed by fitting the curve of compound percent inhibition versus the log of the compound concentration using the GraphPad Prism 7.0 software.

PD-1/PD-L1 = PD-1/PD-L1 (Homo sapiens (Human), UniProt Q9NZQ7); experiment: Homogeneous Time-Resolved Fluorescence (HTRF) PD-1/PD-L1 binding assay; conditions: recombinant human PD-1 and PD-L1, 25° C., pH 7.4
Description: Example A. Homogeneous Time-Resolved Fluorescence (HTRF) PD-1/PD-L1 Binding Assay
The assays were conducted in a standard black 384-well polystyrene plate with a final volume of 20 μL. Inhibitors were first serially diluted in DMSO and then added to the plate wells before the addition of other reaction components. The final concentration of DMSO in the assay was 1%. The assays were carried out at 25° C. in the PBS buffer (pH 7.4) with 0.05% Tween-20 and 0.1% BSA. Recombinant human PD-L1 protein (19-238) with a His-tag at the C-terminus was purchased from AcroBiosystems (PD1-H5229). Recombinant human PD-1 protein (25-167) with Fc tag at the C-terminus was also purchased from AcroBiosystems (PD1-H5257). PD-L1 and PD-1 proteins were diluted in the assay buffer and 10 μL was added to the plate well. Plates were centrifuged and proteins were preincubated with inhibitors for 40 minutes. The incubation was followed by the addition of 10 μL of HTRF detection buffer supplemented with Europium cryptate-labeled anti-human IgG (PerkinElmer-AD0212) specific for Fc and anti-His antibody conjugated to SureLight®-Allophycocyanin (APC, PerkinElmer-AD0059H). After centrifugation, the plate was incubated at 25° C. for 60 min. before reading on a PHERAstar FS plate reader (665 nm/620 nm ratio). Final concentrations in the assay were—3 nM PD1,10 nM PD-L1, 1 nM europium anti-human IgG and 20 nM anti-His-Allophycocyanin. IC50 determination was performed by fitting the curve of percent control activity versus the log of the inhibitor concentration using the GraphPad Prism 5.0 software.

[1] = tested on: PD-L1 aAPC/CHO-K1 cells and Jurkat-PD-1-NFAT effector cells; experiment: Nuclear factor of activated T-cells (NFAT) assay; format: cell-based; conditions: Cricetulus griseus; PD-L1 aAPC/CHO-K1 cells with Jurkat-PD-1-NFAT effector cells, 24 hours
Description: Example C. Nuclear Factor of Activated T-Cells (NFAT) Assay
PD-L1 aAPC/CHO-Klcells (Promega) were maintained in F-12 medium with addition of 10% FBS, 200 μg/ml Hygromycin B, 250 μg/ml Geneticin (G418). Jurkat-PD-1-NFAT effector cells (Promega) were cultured in RPMI 1640 medium supplemented with 10% FBS, 100 μg/ml Hygromycin B, 500 μg/ml G418. The culture media of PD-L1 aAPC/CHO-K1 cells were first replaced with assay medium (RPMI1640 medium with 1% FBS). The PD-L1 aAPC/CHO-K1 cells were then added in a white 384-well white clear bottom assay plate (CELLCOAT® Tissue Culture Plates, Greiner Bio-One) at 8000 per well in 10 μL assay medium. Test compounds were prepared by serial dilution in DMSO and 0.8 μL test compounds in DMSO were first transferred to the 384 REMP plate well (Thermofisher) by PlateMate Plus (Thermofisher) followed with addition of 50 μL plating medium. 5 μL compounds in the assay medium were transferred to the cells with 0.4% DMSO in the final assay at 2 μM. After removing the culture media, 10,000 Jurkat-PD-1-NFAT effector cells in 5 μL assay medium was dispensed into each well. The assay plate was incubated at 37° C., 5% CO2 for 24 hours. After the assay plate was equilibrated to room temp for 15 minutes, 20 µL/well of Bio-Glo™ reagent (Promega) were added. After 8 minutes incubation at room temperature, luminescence was read at with Pherastar microplate reader (BMG Labtech). The fold of induction (FOI) was calculated based on the ratio of luminescence normalized to the DMSO wells within each assay plate. The maximum percentage of induction was reported based on the ratio between the highest FOI of each compound and the maximum FOI of control compound within each assay plate. Wells with DMSO were served as the negative controls and wells containing control compound with the highest FOI were used as positive controls. EC50 determination was performed by fitting the curve of percent control activity versus the log of the compound concentration using the GraphPad Prism 6.0 software.

[2] = tested on: U2OS/PD-L1 cells and Jurkat-PD-1-SHP cells; experiment: Src homology region 2 domain-containing phosphatase (SHP) assay; format: cell-based; conditions: Homo sapiens; U2OS/PD-L1 cells with Jurkat-PD-1-SHP cells, 2 hours
Description: Example B. Src Homology Region 2 Domain-Containing Phosphatase (SHP) Assay
U2OS/PD-L1 cells (DiscoveRx Corporation) were maintained in McCoy's 5A medium with addition of 10% FBS, 0.25 μg/ml Puromycin. After removing the culture media, the cell medium was replaced with assay medium (RPMI1640 medium with 1% FBS). The U2OS/PD-L1 cells were then added in 384-well black clear bottom assay plate (CELLCOAT® Tissue Culture Plates, Greiner Bio-One) at 5000 cells per well in 20 μL assay medium. Test compounds were prepared by serial dilution in DMSO and 125 nL compound were first transferred to the 384 REMP plate well (Thermofisher) by ECHO liquid handler (Labcyte) followed with addition of 27.5 μL assay medium. 5 μL/well compounds in the assay medium were transferred to the cell plate with 0.05% DMSO in the final assay at 0.5 μM. Jurkat-PD-1-SHP cells (DiscoveRx Corporation) were cultured in RPMI1640 medium supplemented with 10% FBS, 250 μg/ml Hygromycin B, 500 μg/ml G418. After the replacement of culture media with assay medium, 5,000 Jurkat-PD-1-SHP cells in 20 μL were dispensed into each well. The assay plate was incubated at 37° C., 5% CO2 for 2 hours before 2.5 μL PathHunter reagent 1 (DiscoveRx Corporation) were added to each well. The assay plate was shaken for 1 min at 350 rpm in the dark followed with addition of 10 μL PathHunter reagent 2 (DiscoveRx Corporation). Chemiluminescent signal was recorded with TopCount reader (Perkin Elmer) after incubation at room temperature for 1 hour. Wells with DMSO were served as the positive controls and wells containing no cells were used as negative controls. IC50 determination was performed by fitting the curve of percentage of control activity versus the log of the compound concentration using the GraphPad Prism 6.0 software.

Chain of PD-L1 (Q9NZQ7 19-290): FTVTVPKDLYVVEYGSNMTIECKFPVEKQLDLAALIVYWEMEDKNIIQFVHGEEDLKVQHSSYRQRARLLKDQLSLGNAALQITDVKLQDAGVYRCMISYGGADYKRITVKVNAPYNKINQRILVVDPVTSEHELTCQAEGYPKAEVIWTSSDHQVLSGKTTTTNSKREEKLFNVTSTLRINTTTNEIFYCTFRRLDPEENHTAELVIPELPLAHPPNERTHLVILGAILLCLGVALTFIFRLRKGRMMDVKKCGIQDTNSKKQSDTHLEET
Chain of PD-1/PD-L1 (Q9NZQ7 19-238): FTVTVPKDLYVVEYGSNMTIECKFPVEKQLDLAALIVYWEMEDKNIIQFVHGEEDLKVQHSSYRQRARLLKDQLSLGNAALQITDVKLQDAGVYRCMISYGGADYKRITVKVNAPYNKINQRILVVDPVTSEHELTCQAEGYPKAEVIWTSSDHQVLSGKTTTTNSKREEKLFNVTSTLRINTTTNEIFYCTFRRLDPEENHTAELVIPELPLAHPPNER

Row | SMILES | IC50 (PD-L1) [nM] | IC50 (PD-1/PD-L1) [nM] | EC50 [1] [nM] | IC50 [2] [nM]
1 | CNC(=O)C1CCN(Cc2cc(C#N)c3oc(-c4cccc(-c5cccc(Nc6nc(C(F)F)nc7cc(CN8CC[C@@H](O)C8)cnc67)c5C)c4C)nc3c2)CC1 [Example 26, (R)-1-((7-cyano-2-(3′-(2-(difluoromethyl)-7-((3-hydroxypyrrolidin-1-yl)methyl)pyrido[3,2-d]pyrimidin-4-ylamino)-2,2′-dimethylbiphenyl-3-yl)benzo[d]oxazol-5-yl)methyl)-N-methylpiperidine-4-carboxamide] | 10 to 100 | ≤ 10 | ≤ 10 | 
2 | Cc1c(Nc2nc(C(F)(F)F)nc3cc(CN4CC[C@@H](O)C4)cnc23)cccc1-c1cccc(-c2nc3cc(CN4CC[C@@](C)(C(=O)O)C4)cc(C#N)c3o2)c1C [Example 21, (R)-1-((7-cyano-2-(3′-(7-(((R)-3-hydroxypyrrolidin-1-yl)methyl)-2-(trifluoromethyl)pyrido[3,2-d]pyrimidin-4-ylamino)-2,2′-dimethylbiphenyl-3-yl)benzo[d]oxazol-5-yl)methyl)-3-methylpyrrolidine-3-carboxylic Acid] | 10 to 100 |  | 10 to 100 | ≤ 10
3 | Cc1c(Nc2nc(CO)nc3cc(CN4CC[C@@H](O)C4)cnc23)cccc1-c1cccc(-c2nc3cc(CN4CCC(C(=O)O)CC4)cc(C#N)c3o2)c1C [Example 32, (R)-1-((7-cyano-2-(3′-(2-(hydroxymethyl)-7-((3-hydroxypyrrolidin-1-yl)methyl)pyrido[3,2-d]pyrimidin-4-ylamino)-2,2′-dimethylbiphenyl-3-yl)benzo[d]oxazol-5-yl)methyl)piperidine-4-carboxylic Acid] | 10 to 100 | ≤ 10 | 10 to 100 | 
4 | Cc1c(Nc2nc(C(F)F)nc3cc(CN4CC[C@@H](O)C4)cnc23)cccc1-c1cccc(-c2nc3cc(CN4CCC(C(=O)NCCC(=O)O)CC4)cc(C#N)c3o2)c1C [Example 27, (R)-3-(1-((7-cyano-2-(3′-(2-(difluoromethyl)-7-((3-hydroxypyrrolidin-1-yl)methyl)pyrido[3,2-d]pyrimidin-4-ylamino)-2,2′-dimethylbiphenyl-3-yl)benzo[d]oxazol-5-yl)methyl)piperidine-4-carboxamido)propanoic Acid] | 10 to 100 | ≤ 10 | 10 to 100 | 
5 | Cc1c(Nc2nc(C(F)F)nc3cc(CN4CC[C@@H](O)C4)cnc23)cccc1-c1cccc(-c2nc3cc(CN4CCC(C)(C(=O)O)CC4)cc(C#N)c3o2)c1C [Example 24, (R)-1-((7-cyano-2-(3′-(2-(difluoromethyl)-7-((3-hydroxypyrrolidin-1-yl)methyl)pyrido[3,2-d]pyrimidin-4-ylamino)-2,2′-dimethylbiphenyl-3-yl)benzo[d]oxazol-5-yl)methyl)-4-methylpiperidine-4-carboxylic Acid] | 10 to 100 | ≤ 10 | 10 to 100 | 
6 | Cc1c(Nc2nc(C(F)F)nc3cc(CN4CC[C@@H](O)C4)cnc23)cccc1-c1cccc(-c2nc3cc(CN4CC[C@H](C(=O)O)C4)cc(C#N)c3o2)c1C [Example 22, (S)-1-((7-cyano-2-(3′-(2-(difluoromethyl)-7-(((R)-3-hydroxypyrrolidin-1-yl)methyl)pyrido[3,2-d]pyrimidin-4-ylamino)-2,2′-dimethylbiphenyl-3-yl)benzo[d]oxazol-5-yl)methyl)pyrrolidine-3-carboxylic Acid] | 10 to 100 | ≤ 10 | 10 to 100 | 
7 | Cc1c(Nc2nc(C(F)F)nc3cc(CN4CC[C@@H](O)C4)cnc23)cccc1-c1cccc(-c2nc3cc(CN4CC[C@](C)(C(=O)O)C4)cc(C#N)c3o2)c1C [Example 23, (S)-1-((7-cyano-2-(3′-(2-(difluoromethyl)-7-(((R)-3-hydroxypyrrolidin-1-yl)methyl)pyrido[3,2-d]pyrimidin-4-ylamino)-2,2′-dimethylbiphenyl-3-yl)benzo[d]oxazol-5-yl)methyl)-3-methylpyrrolidine-3-carboxylic Acid] | 10 to 100 | ≤ 10 | ≤ 10 | 
8 | Cc1c(Nc2nc(C(F)F)cc3cc(CN4CC[C@@H](O)C4)cnc23)cccc1-c1cccc(-c2nc3cc(CN4CC[C@@](C)(C(=O)O)C4)cc(C#N)c3o2)c1C [Example 34, (R)-1-((7-cyano-2-(3′-(6-(difluoromethyl)-3-(((R)-3-hydroxypyrrolidin-1-yl)methyl)-1,7-naphthyridin-8-ylamino)-2,2′-dimethylbiphenyl-3-yl)benzo[d]oxazol-5-yl)methyl)-3-methylpyrrolidine-3-carboxylic Acid] | 100 to 500 | ≤ 10 | ≤ 10 | 
9 | Cc1c(Nc2nc(C(F)F)nc3cc(CN4CC[C@@H](O)C4)cnc23)cccc1-c1cccc(-c2nc3cc(CN4CCC(C(=O)N(C)C)CC4)cc(C#N)c3o2)c1C [Example 25, (R)-1-((7-cyano-2-(3′-(2-(difluoromethyl)-7-((3-hydroxypyrrolidin-1-yl)methyl)pyrido[3,2-d]pyrimidin-4-ylamino)-2,2′-dimethylbiphenyl-3-yl)benzo[d]oxazol-5-yl)methyl)-N,N-dimethylpiperidine-4-carboxamide] | 10 to 100 | ≤ 10 | 10 to 100 | 
